For 2 molecules, IC50 and ΔTm results are on record in paper PMC8272215 (2021).

Test [1] has as its system poly A-poly U (RNA, polymer) A/U. Description: fluorescent indicator displacement (DAPI). The note with it: Na+ (50 mM sodium cacodylate); pH 7.4; DAPI displaced; polynucleotide 1-2 × 10^-5 M.
The test system is the same in test [2]. Nature of the test: fluorescent indicator displacement (EB). The note with it: Na+ (50 mM sodium cacodylate); pH 7.4; ethidium bromide displaced; polynucleotide 3-4 × 10^-5 M.
For test [3] the test system is unchanged. Nature of the test: UV melting at 260 nm. The following applies: Na+ (50 mM sodium cacodylate); pH 7.4; r = [ligand]/[polynucleotide] = 0.05; caption says ctDNA, text b32 says poly A-poly U; per base.

The term ΔTm denotes the shift of the melting midpoint relative to a reference. On to `NCCN(CCN)CCCNCCN1CCNCc2cccc(n2)CNCC1`, for which the IC50 in test [1] is 0.85 [ligand]/[polynucleotide] ratio (dimensionless); in test [2], 0.63 [ligand]/[polynucleotide] ratio (dimensionless). The ΔTm in test [3] was 21.3 °C.
The like results for `c1cc2nc(c1)CNCCN(CCCNCCN1CCNCc3cccc(n3)CNCC1)CCNC2` were, in that order, 0.45 [ligand]/[polynucleotide] ratio (dimensionless), 0.86 [ligand]/[polynucleotide] ratio (dimensionless) and 17.1 °C.
